Source: ChEMBL document CHEMBL1138025, “Nocathiacin I analogues: synthesis, in vitro and in vivo biological activity of novel semi-synthetic thiazolyl peptide antibiotics” (Bioorg Med Chem Lett, 2004)
Values after ≈ are worked out from the molar mass of the structure shown.

Key:
[1] = test system: Mus musculus; test: In vivo efficacy (PD50) against lethal Staphylococcus aureus systemic infection model in mice; format: functional; settings: read-out: PD50
[2] = test system: Enterococcus faecalis; test: In vitro antibacterial activity against methicillin-sensitive Enterococcus faecalis A20688; format: functional
[3] = test system: Staphylococcus aureus; test: In vitro antibacterial activity against methicillin-sensitive Staphylococcus aureus A15090; format: functional
[4] = test system: Streptococcus pneumoniae; test: In vitro antibacterial activity against penicillin-resistant Streptococcus pneumoniae A28272; format: functional
[5] = Equilibrium water solubility at pH 3.0; format: physicochemical

| SMILES | ED50 [1] [mg/kg] | MIC [2] [µg/mL] | MIC [3] [µg/mL] | MIC [4] [µg/mL] | solubility thermodynamic [5] [µg/mL] |
| --- | --- | --- | --- | --- | --- |
| CO/C(C)=C1/NC(=O)[C@H]([C@@H](C)O)NC(=O)c2csc(n2)-c2cc(O)c(-c3nc(C(=O)NC(CN4CCN(CCN5CCOCC5)CC4)C(N)=O)cs3)nc2-c2csc(n2)[C@@H]2COC(=O)c3c4c5c(cccc5n3O)COC(=O)[C@@H](O[C@H]3C[C@](C)(O)[C@H](N(C)C)[C@H](C)O3)[C@@H](OC4)[C@H](NC(=O)c3csc1n3)c1nc(cs1)C(=O)N2 (stereo partly drawn) | 1.4 | 0.5 (≈ 0.305 µM) | 0.25 (≈ 0.153 µM) | 0.06 (≈ 0.0367 µM) | > 12300 |
| CCOC(=O)CN1CCN(CC(NC(=O)c2csc(-c3nc4c(cc3O)-c3nc(cs3)C(=O)N[C@@H]([C@@H](C)O)C(=O)N/C(=C(\C)OC)c3nc(cs3)C(=O)N[C@@H]3c5nc(cs5)C(=O)N[C@@H](COC(=O)c5c6c7c(cccc7n5O)COC(=O)[C@@H](O[C@H]5C[C@](C)(O)[C@H](N(C)C)[C@H](C)O5)[C@H]3OC6)c3nc-4cs3)n2)C(N)=O)CC1 (stereo partly drawn) | – | 0.25 (≈ 0.155 µM) | 0.06 (≈ 0.0373 µM) | 0.007 (≈ 0.00435 µM) | – |
| CO/C(C)=C1/NC(=O)[C@H]([C@@H](C)O)NC(=O)c2csc(n2)-c2cc(O)c(-c3nc(C(=O)NC(CN4CCN(c5ccncc5)CC4)C(N)=O)cs3)nc2-c2csc(n2)[C@@H]2COC(=O)c3c4c5c(cccc5n3O)COC(=O)[C@@H](O[C@H]3C[C@](C)(O)[C@H](N(C)C)[C@H](C)O3)[C@@H](OC4)[C@H](NC(=O)c3csc1n3)c1nc(cs1)C(=O)N2 (stereo partly drawn) | 4.5 | 0.5 (≈ 0.312 µM) | 0.25 (≈ 0.156 µM) | 0.06 (≈ 0.0375 µM) | > 12500 |
| CO/C(C)=C1/NC(=O)[C@H]([C@@H](C)O)NC(=O)c2csc(n2)-c2cc(O)c(-c3nc(C(=O)NC(CN4CCN(c5cccnc5)CC4)C(N)=O)cs3)nc2-c2csc(n2)[C@@H]2COC(=O)c3c4c5c(cccc5n3O)COC(=O)[C@@H](O[C@H]3C[C@](C)(O)[C@H](N(C)C)[C@H](C)O3)[C@@H](OC4)[C@H](NC(=O)c3csc1n3)c1nc(cs1)C(=O)N2 (stereo partly drawn) | 1.43 | 0.25 (≈ 0.156 µM) | 0.06 (≈ 0.0375 µM) | 0.007 (≈ 0.00437 µM) | > 2300 |
| CO/C(C)=C1/NC(=O)[C@H]([C@@H](C)O)NC(=O)c2csc(n2)-c2cc(O)c(-c3nc(C(=O)NC(CN(C)CCN4CCCCC4)C(N)=O)cs3)nc2-c2csc(n2)[C@@H]2COC(=O)c3c4c5c(cccc5n3O)COC(=O)[C@@H](O[C@H]3C[C@](C)(O)[C@H](N(C)C)[C@H](C)O3)[C@@H](OC4)[C@H](NC(=O)c3csc1n3)c1nc(cs1)C(=O)N2 (stereo partly drawn) | 3.2 | 1 (≈ 0.633 µM) | 0.12 (≈ 0.076 µM) | 0.03 (≈ 0.019 µM) | > 2700 |
| CO/C(C)=C1/NC(=O)[C@H]([C@@H](C)O)NC(=O)c2csc(n2)-c2cc(O)c(-c3nc(C(=O)NC(CN4CCN(c5ccccn5)CC4)C(N)=O)cs3)nc2-c2csc(n2)[C@@H]2COC(=O)c3c4c5c(cccc5n3O)COC(=O)[C@@H](O[C@H]3C[C@](C)(O)[C@H](N(C)C)[C@H](C)O3)[C@@H](OC4)[C@H](NC(=O)c3csc1n3)c1nc(cs1)C(=O)N2 (stereo partly drawn) | < 0.62 | 0.25 (≈ 0.156 µM) | 0.12 (≈ 0.075 µM) | 0.03 (≈ 0.0187 µM) | > 2400 |
| CNCCN(C)CC(NC(=O)c1csc(-c2nc3c(cc2O)-c2nc(cs2)C(=O)N[C@@H]([C@@H](C)O)C(=O)N/C(=C(\C)OC)c2nc(cs2)C(=O)N[C@@H]2c4nc(cs4)C(=O)N[C@@H](COC(=O)c4c5c6c(cccc6n4O)COC(=O)[C@@H](O[C@H]4C[C@](C)(O)[C@H](N(C)C)[C@H](C)O4)[C@H]2OC5)c2nc-3cs2)n1)C(N)=O (stereo partly drawn) | > 10 | 0.5 (≈ 0.328 µM) | 0.06 (≈ 0.0393 µM) | 0.001 (≈ 0.000655 µM) | > 2800 |
